In patent publication US8563578B2, “Antitumor properties of NO modified protease inhibitors” (Onconox APS, priority 2008, dated 2013):

Tested on: B16 cells
Test: Viability (MTT) of B16 cells with Saq-NO2 plus Akt/PI-3K inhibitor
Type: cell-based, mouse
Details: B16, 24 h, 18.8 μM Saq-NO2 with Akt VI (50μg/ml) or 3-MA (1 mM)
Protocol: Reduction of 3-4,5-dimethylthiazol-2-yl)-2,5-diphenyltetrazolium bromide (MTT) to formazan depends on mitochondrial activity of cultured cells, absorption of crystal violet dye correlates with the number of adherent, live cells, while the release of cytosolic lactate dehydrogenase (LDH) indicates the disruption of membrane integrity caracteristic for necrotic cells. The cells were seeded in flat-bottom 96-well plates in a final volume of 200 μl of culture medium containing different agents, and the assays were performed after 24 h incubation exactly as previously described (Mijatovic et al. 2004, Decker et al., 1998). Mitohondrial-dependent production of formazan and intensity of absorbed crystal violet by adherent cells were assessed by an automated microplate reader at 570 nm, while the pyruvate-mediated conversion of 2,4-dinitrophenylhydrazine into visible hydrazone precipitate in LDH assay was measured at 492 nm. The % of cytotoxicity as indicated by LDH release was calculated as: (E−C)/(T−C)×100, where E is the experimental absorbance of cell cultures, C is the control absorbance of cell-free culture medium, and T is the absorbance corresponding to the maximal (100%) LDH release of Triton-lysed cells.
FIG. 6. […] (C) B16 cells (1×10^4 cells/well) were incubated for 24 h with 18.8 μM Saq-NO2 with or without Akt VI (50μg/ml) or 3-MA (1 mM) and cell viability was assessed by MTT. […]

SMILES: Cn1cnc(=N)c2[nH]cnc21 [3-MA]
- tumor cell viability on addition of inhibitor to Saq-NO2: further decrease of tumor cell viability
